Reference: publication PMC4830873 (Analytical and Bioanalytical Chemistry, 2016)
Entries after “also recorded” stand apart in the source; their conditions may differ. Where a SMILES comes first, the peptide text is derived from it. [ ]: non-standard residue; d: D form.

What was measured:
[1] = Rat administration study, detection in plasma after intravenous administration; format: in vivo, Wistar; settings: for In vivo biotransformation in rats (in words) / Anticipated metabolic products (N- or C-terminally truncated analogues) in rat plasma / Detection of intact GHRH in rat plasma 4 h post-administration / Detection of intact GHRH in rat plasma 8 h post-administration: 0.1 mg intravenous; for In vivo biotransformation in rats (in words): compared to CJC-1295; for Anticipated metabolic products (N- or C-terminally truncated analogues) in rat plasma: plasma 2, 4 and 8 h; for Detection of intact GHRH in rat plasma 4 h post-administration: plasma 4 h post dosing; for Detection of intact GHRH in rat plasma 4 h post-administration / Detection of intact GHRH in rat plasma 8 h post-administration: immunoaffinity purification and LC-HRMS/MS; for Detection of intact GHRH in rat plasma 8 h post-administration: plasma 8 h post dosing (latest collection time point)
Method: (§1) Sample aliquots of 100 μL of plasma were spiked with 1 μL of ISTD [200 ng/mL] and diluted with 100 μL of PBS before extraction. The multichannel pipette was equipped with up to 12 protein A/G MSIA™-Tips and up to 2000 cycles (one cycle corresponding to one round of liquid aspiration and ejection) were used for distinct sample preparation steps as outlined in Table 2. First, tips were conditioned with PBS before binding 10 μg of the polyclonal GHRH primary antibody (5 μL [2 mg/mL] in 95 μL PBS) to the proteins A/G immobilized on the monolithic adsorbent surface. After washing with PBS to remove unbound antibody residues the target analytes were extracted from plasma by antibody-antigen complex formation prior to three consecutive washing steps with PBS and water (Table 2). The peptides of interest were eluted into LoBind tubes using 3 % of aqueous acetic acid and the eluate was immediately used for injection into the UHPLC-MS(/MS) system. In Fig. 1, a schematic illustration of the relevant principle steps of the MSIA™ purification is presented.
To probe for the in vivo metabolism of Sermorelin, CJC-1293, CJC-1295, and Tesamorelin, 0.1 mg of each GHRH was administered intravenously to three rats (Rattus norvegicus, Wistar, 200–300 g bodyweight at dosing). Urine samples were collected in a metabolic cage prior to and 6, 12, 24, and 30 h after administration but not subjected to analysis in this study. Blood was sampled at 2, 4, and 8 h after injection and specimens were centrifuged at 13,000×g for 20 min to produce serum or EDTA plasma, which was stored at −20 °C until analysis. The animal studies were conducted with approval of the respective ethical committee and the laboratory followed the directive 2010/63/EU of the European parliament and the council of 22 September 2010 on the protection of animals used for scientific purposes.
All intact GHRHs administered intravenously to rats were detected in plasma samples collected 2 h post dosing. In addition, Tesamorelin, CJC-1295, and CJC-1293 were also identified in specimens sampled 4 and 8 h post-administrating (Fig. 3), with the 8-h sample representing the latest collection time point of the study. Here it appears noteworthy that only qualitative results were obtained and that no pharmacokinetic interpretation was conducted. While all analytes were unequivocally identified and differentiated by mass spectrometry, chromatographic separation was accomplished for all target peptides with the exemption of the closely related compounds Sermorelin and CJC-1293 under the chosen analytical conditions.

[2] = Human administration study, detection in EDTA plasma after subcutaneous Geref (Sermorelin); format: in vivo; settings: healthy volunteer, 500 μg Geref (Sermorelin) subcutaneous, n = 1
Method: as §1
Complementary to the aforementioned rat elimination study, a single dose of 500 μg of Geref (Sermorelin) (Hallandale Pharmacy, FL, USA) was self-administered subcutaneously by a healthy volunteer (78 kg) following the provision of written consent. EDTA plasma samples were collected 30, 90, and 270 min after dosing and the specimens were stored at −20 °C until analysis.
Compared to rat plasma samples collected after the intravenous application of Sermorelin, the human in vivo study (using subcutaneous drug application) indicates a different but also rapid metabolism of the peptide hormone. While the intact drug was not detected in any of the collected plasma samples, the in vitro-derived Sermorelin metabolite GRF3-29 was detected in plasma 30 min post injection (Fig. 4).

[3] = In vitro incubation in fresh human plasma (metabolic fate / degradation); format: in vitro ADME; settings: fresh human plasma diluted 1:1 with PBS, qualitative; for Degradation products (metabolites) detected after incubation in human plasma: spiked to 10 μg/mL, 30, 60, 120 and 240 min at 37 °C, LC-HRMS full scan before vs after incubation
Method: For the investigation of the metabolic fate of GHRHs, in vitro experiments using fresh human plasma samples were conducted, allowing to test for potential degradation products of the studied substances. In accordance to earlier reported methods, aliquots of human plasma samples were diluted (1:1) with PBS [22] and spiked to 10 μg/mL with Sermorelin or Tesamorelin, respectively. After incubation for 30, 60, 120, and 240 min at 37 °C, samples were prepared and analyzed as described elsewhere. Simulating degradation processes of exopeptidases, potential metabolites were considered by eliminating up to three amino acids from both N- and C-terminus. All samples were probed for the anticipated metabolic products as well as for the corresponding intact drugs.
Identifying potential metabolites of Sermorelin and Tesamorelin was accomplished by subtracting and comparing mass spectrometric full scan data of samples prepared before and after incubation of the substrates in fresh human plasma.

[4] = EDTA plasma samples after subcutaneous self-administration of Geref (Sermorelin); settings: human, up to 270 min
[5] = fresh human plasma samples diluted (1:1) with PBS; settings: 37 °C, up to 240 min
[6] = test system: dipeptidyl peptidase-IV (DPP-IV); experiment: in vitro; settings: cited from earlier work
[7] = rat serum or EDTA plasma after intravenous administration; settings: rats (Rattus norvegicus, Wistar), up to 8 h

Molecule: CC[C@H](C)[C@H](NC(=O)[C@H](C)NC(=O)[C@H](CC(=O)O)NC(=O)[C@@H](C)NC(=O)[C@@H](N)Cc1ccc(O)cc1)C(=O)N[C@@H](Cc1ccccc1)C(=O)N[C@H](C(=O)N[C@@H](CC(N)=O)C(=O)N[C@@H](CO)C(=O)N[C@@H](Cc1ccc(O)cc1)C(=O)N[C@@H](CCCNC(=N)N)C(=O)N[C@@H](CCCCN)C(=O)N[C@H](C(=O)N[C@@H](CC(C)C)C(=O)NCC(=O)N[C@@H](CCC(N)=O)C(=O)N[C@@H](CC(C)C)C(=O)N[C@@H](CO)C(=O)N[C@@H](C)C(=O)N[C@@H](CCCNC(=N)N)C(=O)N[C@@H](CCCCN)C(=O)N[C@@H](CC(C)C)C(=O)N[C@@H](CC(C)C)C(=O)N[C@@H](CCC(N)=O)C(=O)N[C@@H](CC(=O)O)C(=O)N[C@H](C(=O)N[C@@H](CCSC)C(=O)N[C@@H](CO)C(=O)N[C@@H](CCCNC(=N)N)C(N)=O)[C@@H](C)CC)C(C)C)[C@@H](C)O [CJC-1293, (D-Ala^2)-GRF amide]
- In vivo biotransformation in rats (in words) [1]: readily biotransformed
- Anticipated metabolic products (N- or C-terminally truncated analogues) in rat plasma ([1]; qualitative): none of the anticipated metabolic products; also recorded: no analogous metabolites
- Detection of intact GHRH in rat plasma 4 h post-administration ([1]; qualitative): identified
- Detection of intact GHRH in rat plasma 8 h post-administration ([1]; qualitative): identified

Molecule: CC[C@H](C)[C@H](NC(=O)[C@H](C)NC(=O)[C@H](CC(=O)O)NC(=O)[C@@H](C)NC(=O)[C@@H](N)Cc1ccc(O)cc1)C(=O)N[C@@H](Cc1ccccc1)C(=O)N[C@H](C(=O)N[C@@H](CCC(N)=O)C(=O)N[C@@H](CO)C(=O)N[C@@H](Cc1ccc(O)cc1)C(=O)N[C@@H](CCCNC(=N)N)C(=O)N[C@@H](CCCCN)C(=O)N[C@H](C(=O)N[C@@H](CC(C)C)C(=O)N[C@@H](C)C(=O)N[C@@H](CCC(N)=O)C(=O)N[C@@H](CC(C)C)C(=O)N[C@@H](CO)C(=O)N[C@@H](C)C(=O)N[C@@H](CCCNC(=N)N)C(=O)N[C@@H](CCCCN)C(=O)N[C@@H](CC(C)C)C(=O)N[C@@H](CC(C)C)C(=O)N[C@@H](CCC(N)=O)C(=O)N[C@@H](CC(=O)O)C(=O)N[C@H](C(=O)N[C@@H](CC(C)C)C(=O)N[C@@H](CO)C(=O)N[C@@H](CCCNC(=N)N)C(N)=O)[C@@H](C)CC)C(C)C)[C@@H](C)O [CJC-1295, (D-Ala^2, Gln^8, Ala^15, Leu^27)-GRF amide] (H-Y[dA]DAIFTQSYRKVLAQLSARKLLQDILSR-NH2)
- Anticipated metabolic products (N- or C-terminally truncated analogues) in rat plasma ([1]; qualitative): no analogous metabolites
- Detection of intact GHRH in rat plasma 4 h post-administration ([1]; qualitative): identified
- Detection of intact GHRH in rat plasma 8 h post-administration ([1]; qualitative): identified

Molecule: CC[C@H](C)[C@H](NC(=O)[C@H](C)NC(=O)[C@H](CC(=O)O)NC(=O)[C@H](C)NC(=O)[C@@H](N)Cc1ccc(O)cc1)C(=O)N[C@@H](Cc1ccccc1)C(=O)N[C@H](C(=O)N[C@@H](CC(N)=O)C(=O)N[C@@H](CO)C(=O)N[C@@H](Cc1ccc(O)cc1)C(=O)N[C@@H](CCCNC(=N)N)C(=O)N[C@@H](CCCCN)C(=O)N[C@H](C(=O)N[C@@H](CC(C)C)C(=O)NCC(=O)N[C@@H](CCC(N)=O)C(=O)N[C@@H](CC(C)C)C(=O)N[C@@H](CO)C(=O)N[C@@H](C)C(=O)N[C@@H](CCCNC(=N)N)C(=O)N[C@@H](CCCCN)C(=O)N[C@@H](CC(C)C)C(=O)N[C@@H](CC(C)C)C(=O)N[C@@H](CCC(N)=O)C(=O)N[C@@H](CC(=O)O)C(=O)N[C@H](C(=O)N[C@@H](CCSC)C(=O)N[C@@H](CO)C(=O)N[C@@H](CCCNC(=N)N)C(N)=O)[C@@H](C)CC)C(C)C)[C@@H](C)O [Sermorelin, GHRH1-29]
- Detection of intact drug in human plasma after subcutaneous application ([2]; EDTA plasma 30, 90 and 270 min after dosing): not detected
- Degradation products (metabolites) detected after incubation in human plasma [3]: the earlier reported metabolite (GRF3-29) [7] was observed
- Intact drug remaining after incubation in human plasma ([3]; spiked to 10 μg/mL, 37 °C, after a period of 4 h (240 min), LC-HRMS full scan): entirely degraded
- Detection window of intact substance in plasma ([1]; 0.1 mg intravenous single dose, sampling at 2, 4 and 8 h, qualitative): ≤ 2 h
- In vivo biotransformation in rats (in words) [1]: readily biotransformed
- Anticipated metabolic products (N- or C-terminally truncated analogues) in rat plasma ([1]; qualitative): none of the anticipated metabolic products

Molecule: CC/C=C/CC(=O)N[C@@H](Cc1ccc(O)cc1)C(=O)N[C@@H](C)C(=O)N[C@@H](CC(=O)O)C(=O)N[C@@H](C)C(=O)N[C@H](C(=O)N[C@@H](Cc1ccccc1)C(=O)N[C@H](C(=O)N[C@@H](CC(N)=O)C(=O)N[C@@H](CO)C(=O)N[C@@H](Cc1ccc(O)cc1)C(=O)N[C@@H](CCCNC(=N)N)C(=O)N[C@@H](CCCCN)C(=O)N[C@H](C(=O)N[C@@H](CC(C)C)C(=O)NCC(=O)N[C@@H](CCC(N)=O)C(=O)N[C@@H](CC(C)C)C(=O)N[C@@H](CO)C(=O)N[C@@H](C)C(=O)N[C@@H](CCCNC(=N)N)C(=O)N[C@@H](CCCCN)C(=O)N[C@@H](CC(C)C)C(=O)N[C@@H](CC(C)C)C(=O)N[C@@H](CCC(N)=O)C(=O)N[C@@H](CC(=O)O)C(=O)N[C@H](C(=O)N[C@@H](CCSC)C(=O)N[C@@H](CO)C(=O)N[C@@H](CCCNC(=N)N)C(=O)N[C@@H](CCC(N)=O)C(=O)N[C@@H](CCC(N)=O)C(=O)NCC(=O)N[C@@H](CCC(=O)O)C(=O)N[C@@H](CO)C(=O)N[C@@H](CC(N)=O)C(=O)N[C@@H](CCC(N)=O)C(=O)N[C@@H](CCC(=O)O)C(=O)N[C@@H](CCCNC(=N)N)C(=O)NCC(=O)N[C@@H](C)C(=O)N[C@@H](CCCNC(=N)N)C(=O)N[C@@H](C)C(=O)N[C@@H](CCCNC(=N)N)C(=O)N[C@@H](CC(C)C)C(N)=O)[C@@H](C)CC)C(C)C)[C@@H](C)O)[C@@H](C)CC [Tesamorelin]
- Degradation products (metabolites) detected after incubation in human plasma [3]: no degradation products of considerable abundance were detected
- Detection of intact GHRH in rat plasma 4 h post-administration ([1]; qualitative): identified
- Detection of intact GHRH in rat plasma 8 h post-administration ([1]; qualitative): identified

Molecule: DAIFTNSYRKVLGQLSARKLLQDIMSR-NH2 [Sermorelin metabolite, GRF3-29, metabolite of Sermorelin originating from the loss of the N-terminal Tyr-Ala-residue]
- Detection of metabolite in human plasma 30 min post injection ([2]; EDTA plasma 30 min): detected
- Detection of metabolite in human plasma 90 min post injection ([2]; EDTA plasma 90 min): negative

Molecule: YADAIFTNSYRKVLGQLSARKLLQDIMSR-NH2
- cleaved bond [4]: Ala2-D3, 30 min
- cleaved bond [5]: Ala2-D3
- cleaved bond [6]: Ala2-D3

Molecule: hexenoyl-YADAIFTNSYRKVLGQLSARKLLQDIMSRQQGESNQERGARARL-NH2
- not cleaved [5]: no degradation products of considerable abundance were detected
- not cleaved [7]: identified at all sampling points (i.e., up to 8 h post-administration)
